Results: PubChem BioAssay (NCI)
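Method: 48-hour compound exposure of cells in 96-well plates, five concentrations, linear interpolation of endpoints. GI50: concentration for 50% inhibition of growth. TGI: total growth inhibition.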

Assays:
Assay in all cases: DTP human tumour cell line panel, 48 h
RXF 393 renal = tested on: RXF 393 renal
NCI-H460 lung = tested on: NCI-H460 lung
CCRF-CEM leukemia = tested on: CCRF-CEM leukemia
K-562 leukemia = tested on: K-562 leukemia
NCI-H522 lung = tested on: NCI-H522 lung
UO-31 renal = tested on: UO-31 renal
COLO 205 colon = tested on: COLO 205 colon
SNB-19 CNS = tested on: SNB-19 CNS
SN12C renal = tested on: SN12C renal
MALME-3M melanoma = tested on: MALME-3M melanoma
HCT-116 colon = tested on: HCT-116 colon
MDA-MB-435 = tested on: MDA-MB-435
UACC-257 melanoma = tested on: UACC-257 melanoma
SK-OV-3 ovarian = tested on: SK-OV-3 ovarian
MDA-MB-231 breast = tested on: MDA-MB-231 breast
UACC-62 melanoma = tested on: UACC-62 melanoma
NCI-H23 lung = tested on: NCI-H23 lung
U251 CNS = tested on: U251 CNS
M14 melanoma = tested on: M14 melanoma
TK-10 renal = tested on: TK-10 renal
OVCAR-4 ovarian = tested on: OVCAR-4 ovarian
SF-539 CNS = tested on: SF-539 CNS
KM12 colon = tested on: KM12 colon
OVCAR-8 ovarian = tested on: OVCAR-8 ovarian
NCI/ADR-RES ovarian = tested on: NCI/ADR-RES ovarian
OVCAR-3 ovarian = tested on: OVCAR-3 ovarian
SK-MEL-2 melanoma = tested on: SK-MEL-2 melanoma
LOX IMVI melanoma = tested on: LOX IMVI melanoma
A549 NSCLC = tested on: A549 NSCLC
SF-268 CNS = tested on: SF-268 CNS
T-47D breast = tested on: T-47D breast
HL-60(TB) leukemia = tested on: HL-60(TB) leukemia
OVCAR-5 ovarian = tested on: OVCAR-5 ovarian
A498 renal = tested on: A498 renal
786-0 renal = tested on: 786-0 renal
CAKI-1 renal = tested on: CAKI-1 renal
SW-620 colon = tested on: SW-620 colon
SF-295 CNS = tested on: SF-295 CNS
SK-MEL-28 melanoma = tested on: SK-MEL-28 melanoma
NCI-H226 lung = tested on: NCI-H226 lung
IGROV1 ovarian = tested on: IGROV1 ovarian
RPMI-8226 leukemia = tested on: RPMI-8226 leukemia
PC-3 prostate = tested on: PC-3 prostate
HS 578T breast = tested on: HS 578T breast
MOLT-4 leukemia = tested on: MOLT-4 leukemia
DU-145 prostate = tested on: DU-145 prostate
MCF7 breast = tested on: MCF7 breast
HOP-62 NSCLC = tested on: HOP-62 NSCLC
SK-MEL-5 melanoma = tested on: SK-MEL-5 melanoma
SR leukemia = tested on: SR leukemia
HCT-15 colon = tested on: HCT-15 colon
HCC-2998 colon = tested on: HCC-2998 colon
HOP-92 NSCLC = tested on: HOP-92 NSCLC
HT29 colon = tested on: HT29 colon
ACHN renal = tested on: ACHN renal
EKVX NSCLC = tested on: EKVX NSCLC

SMILES: Nc1cc(N)c2nc(-c3ccccc3)c(Sc3ccc(Cl)c(Cl)c3)nc2c1
- GI50 (RXF 393 renal): 14 µM
- TGI (RXF 393 renal): 56.7 µM
- GI50 (NCI-H460 lung): 10.5 µM
- TGI (NCI-H460 lung): 33.5 µM
- GI50 (CCRF-CEM leukemia): 2.52 µM
- TGI (CCRF-CEM leukemia): > 100 µM
- GI50 (K-562 leukemia): 16 µM
- TGI (K-562 leukemia): > 100 µM
- GI50 (NCI-H522 lung): 7.67 µM
- TGI (NCI-H522 lung): 34 µM
- GI50 (UO-31 renal): 14 µM
- TGI (UO-31 renal): 76.7 µM
- GI50 (COLO 205 colon): 10.8 µM
- TGI (COLO 205 colon): 33.6 µM
- GI50 (SNB-19 CNS): 17 µM
- TGI (SNB-19 CNS): 58.1 µM
- GI50 (SN12C renal): 23.2 µM
- TGI (SN12C renal): > 100 µM
- GI50 (MALME-3M melanoma): 19.6 µM
- TGI (MALME-3M melanoma): 50.3 µM
- GI50 (HCT-116 colon): 9.43 µM
- TGI (HCT-116 colon): 47.9 µM
- GI50 (MDA-MB-435): 18.3 µM
- TGI (MDA-MB-435): 60.9 µM
- GI50 (UACC-257 melanoma): 17.6 µM
- TGI (UACC-257 melanoma): 59 µM
- GI50 (SK-OV-3 ovarian): 14.7 µM
- TGI (SK-OV-3 ovarian): 39.4 µM
- GI50 (MDA-MB-231 breast): 16.6 µM
- TGI (MDA-MB-231 breast): 54.2 µM
- GI50 (UACC-62 melanoma): 6.7 µM
- TGI (UACC-62 melanoma): 42.8 µM
- GI50 (NCI-H23 lung): 12.5 µM
- TGI (NCI-H23 lung): 34.5 µM
- GI50 (U251 CNS): 10.3 µM
- TGI (U251 CNS): > 100 µM
- GI50 (M14 melanoma): 32.2 µM
- TGI (M14 melanoma): > 100 µM
- GI50 (TK-10 renal): 14.6 µM
- TGI (TK-10 renal): 31.8 µM
- GI50 (OVCAR-4 ovarian): 20 µM
- TGI (OVCAR-4 ovarian): > 100 µM
- GI50 (SF-539 CNS): 14.4 µM
- TGI (SF-539 CNS): 41.8 µM
- GI50 (KM12 colon): 11.3 µM
- TGI (KM12 colon): > 100 µM
- GI50 (OVCAR-8 ovarian): 24.7 µM
- TGI (OVCAR-8 ovarian): > 100 µM
- GI50 (NCI/ADR-RES ovarian): 19.1 µM
- TGI (NCI/ADR-RES ovarian): 60.4 µM
- GI50 (OVCAR-3 ovarian): 11.7 µM
- TGI (OVCAR-3 ovarian): 46.4 µM
- GI50 (SK-MEL-2 melanoma): 6.2 µM
- TGI (SK-MEL-2 melanoma): 31.1 µM
- GI50 (LOX IMVI melanoma): 7.36 µM
- TGI (LOX IMVI melanoma): 24.5 µM
- GI50 (A549 NSCLC): 13.6 µM
- TGI (A549 NSCLC): 51.9 µM
- GI50 (SF-268 CNS): 13.7 µM
- TGI (SF-268 CNS): 51.1 µM
- GI50 (T-47D breast): 13.3 µM
- TGI (T-47D breast): > 100 µM
- GI50 (HL-60(TB) leukemia): 8.02 µM
- TGI (HL-60(TB) leukemia): > 100 µM
- GI50 (OVCAR-5 ovarian): 38.9 µM
- TGI (OVCAR-5 ovarian): 59.5 µM
- GI50 (A498 renal): 21.9 µM
- TGI (A498 renal): 49.9 µM
- GI50 (786-0 renal): 22 µM
- TGI (786-0 renal): 92.1 µM
- GI50 (CAKI-1 renal): 14 µM
- TGI (CAKI-1 renal): 41.1 µM
- GI50 (SW-620 colon): 20.9 µM
- TGI (SW-620 colon): 83.6 µM
- GI50 (SF-295 CNS): 17.7 µM
- TGI (SF-295 CNS): 60.1 µM
- GI50 (SK-MEL-28 melanoma): 13.7 µM
- TGI (SK-MEL-28 melanoma): 56.9 µM
- GI50 (NCI-H226 lung): 3.05 µM
- TGI (NCI-H226 lung): 9.19 µM
- GI50 (IGROV1 ovarian): 2.93 µM
- TGI (IGROV1 ovarian): 27.8 µM
- GI50 (RPMI-8226 leukemia): 3.81 µM
- TGI (RPMI-8226 leukemia): 31.6 µM
- GI50 (PC-3 prostate): 5.78 µM
- TGI (PC-3 prostate): 35.9 µM
- GI50 (HS 578T breast): 30 µM
- TGI (HS 578T breast): > 100 µM
- GI50 (MOLT-4 leukemia): 4.08 µM
- TGI (MOLT-4 leukemia): > 100 µM
- GI50 (DU-145 prostate): 11.1 µM
- TGI (DU-145 prostate): 25 µM
- GI50 (MCF7 breast): 5.3 µM
- TGI (MCF7 breast): 37.8 µM
- GI50 (HOP-62 NSCLC): 12.4 µM
- TGI (HOP-62 NSCLC): 78.5 µM
- GI50 (SK-MEL-5 melanoma): 21.4 µM
- TGI (SK-MEL-5 melanoma): 95.5 µM
- GI50 (SR leukemia): 4.63 µM
- TGI (SR leukemia): 35.3 µM

SMILES: S=c1[nH]n2c(Cc3ccccc3)nnc2s1
- TGI (RXF 393 renal): > 100 µM
- TGI (NCI-H460 lung): > 100 µM
- TGI (CCRF-CEM leukemia): > 100 µM
- TGI (HCT-15 colon): > 100 µM
- TGI (K-562 leukemia): > 100 µM
- TGI (NCI-H522 lung): > 100 µM
- TGI (UO-31 renal): > 100 µM
- TGI (COLO 205 colon): > 100 µM
- TGI (SNB-19 CNS): > 100 µM
- TGI (SN12C renal): > 100 µM
- TGI (HCC-2998 colon): > 100 µM
- TGI (MALME-3M melanoma): > 100 µM
- TGI (HCT-116 colon): > 100 µM
- TGI (MDA-MB-435): > 100 µM
- TGI (UACC-257 melanoma): > 100 µM
- TGI (SK-OV-3 ovarian): > 100 µM
- TGI (MDA-MB-231 breast): > 100 µM
- TGI (UACC-62 melanoma): > 100 µM
- TGI (NCI-H23 lung): > 100 µM
- TGI (U251 CNS): > 100 µM
- TGI (HOP-92 NSCLC): > 100 µM
- TGI (M14 melanoma): > 100 µM
- TGI (TK-10 renal): > 100 µM
- TGI (HT29 colon): > 100 µM
- TGI (OVCAR-4 ovarian): > 100 µM
- TGI (SF-539 CNS): > 100 µM
- TGI (KM12 colon): > 100 µM
- TGI (OVCAR-8 ovarian): > 100 µM
- TGI (NCI/ADR-RES ovarian): > 100 µM
- TGI (OVCAR-3 ovarian): > 100 µM
- TGI (SK-MEL-2 melanoma): > 100 µM
- TGI (LOX IMVI melanoma): > 100 µM
- TGI (A549 NSCLC): > 100 µM
- TGI (SF-268 CNS): > 100 µM
- TGI (ACHN renal): > 100 µM
- TGI (T-47D breast): > 100 µM
- TGI (HL-60(TB) leukemia): > 100 µM
- TGI (OVCAR-5 ovarian): > 100 µM
- TGI (786-0 renal): > 100 µM
- TGI (CAKI-1 renal): > 100 µM
- TGI (SW-620 colon): > 100 µM
- TGI (SF-295 CNS): > 100 µM
- TGI (SK-MEL-28 melanoma): > 100 µM
- TGI (NCI-H226 lung): > 100 µM
- TGI (IGROV1 ovarian): > 100 µM
- TGI (RPMI-8226 leukemia): > 100 µM
- TGI (PC-3 prostate): > 100 µM
- TGI (HS 578T breast): > 100 µM
- TGI (MOLT-4 leukemia): > 100 µM
- TGI (DU-145 prostate): > 100 µM
- TGI (MCF7 breast): > 100 µM
- TGI (HOP-62 NSCLC): > 100 µM
- TGI (EKVX NSCLC): > 100 µM
- TGI (SK-MEL-5 melanoma): > 100 µM
